Here are results for 2 compounds from US10202371B2, “Oxazolidin-2-one-pyrimidine derivatives and the use thereof as phosphatidylinositol-3-kinase inhibitors” (Novartis AG, priority 2012, dated 2019).

For one test, the system named is Detroit562 cells. Nature of the test: BrdU cell proliferation assay Detroit562. The test is classed as cell-based. The following applies: Homo sapiens, Detroit 562, BrdU incorporation. The source says:
(§1) The SCL-1 and SCC12B2 are human cutaneous squamous cell carcinoma (SCC) cell lines derived from naturally occurring, poorly differentiated SCCs. The SCL-1 cell line was originally established in the lab of N. Fusenig at the Cancer Research Center in Heidelberg, and its growth characteristics in vitro in comparison to normal keratinocytes were described previously (Neely et al 1991). The SCC12B2 cell line was established as described previously (Rheinwald & Beckett 1981) from the facial skin of a transplant patient who received immunosuppressive therapy for 7 years. The human SCC cell line Detroit562 was obtained from American Tissue Culture Collection (ATCC). Detroit562 is referred to as Head & Neck squamous cell carcinomas (HNSCC) and was derived from a pharyngeal SCC tumor. […]
(§2) Cells of SCC or keratinocyte lines (Detroit562, SCC12B2, SCL1, HaCaT) were used for the proliferation assays when they had reached about 80% to 90% confluency. Cells were then harvested after trypsin-mediated dislodgement from culture flasks, washed in culture medium containing 10% FCS, counted in a hemocytometer and diluted complete culture medium with 5% FCS to obtain a cell density of 5×10^4 cells/ml. […] The cell proliferation was determined on the basis of incorporation of bromodesoxy-uridin (BrdU) into cellular DNA using the chemiluminescent BrdU Cell Proliferation ELISA (Roche article #11 669 915 001). […]

Another test has as its system SCC12B2 cells. Nature of the test: BrdU cell proliferation assay SCC12B2. The test is classed as cell-based. The following applies: Homo sapiens, BrdU incorporation.
Text: as §1, §2

The target of the next test is human PI3Kα (Homo sapiens (Human), UniProt P42336). Nature of the test: Biochemical assay PI3Kalpha (KinaseGlo luminescence). Conditions: 1 μM ATP. The source says: Cancer Ther. accepted). […] (L-alpha-phosphatidylinositol (PI), Liver, Bovine) were obtained from Avanti Polar Lipid (Cat. […] (Avanti, Cat. No. 840046X) or L-α-phosphatidylinositol (PI) was obtained from Avanti Polar Lipid (Cat. […] Luminescence is a well established readout to determine ATP concentrations and can thus be used to follow the activity of many kinases regardless of their substrate. The Kinase Glo Luminescent Kinase Assay (Promega, Madison/WI, USA) is a homogeneous HTS method of measuring kinase activity by quantifying the amount of ATP remaining in solution following a kinase reaction. 50 nL of compound dilutions were dispensed onto black 384-well low volume Non Binding Styrene (NBS) plates (Costar Cat. No. […] L-α-phosphatidylinositol (PI), provided as 10 mg/ml solution in methanol, was transferred into a glass tube and dried under nitrogen beam. […] NVP-BGT226 was used as a reference compound and included in all assay plates in the form of 16 dilution points in duplicate. […] All fits were performed with the program XLfit4 (ID Business Solutions, Guildford, UK).
Chain of human PI3Kα (P42336 21-1068): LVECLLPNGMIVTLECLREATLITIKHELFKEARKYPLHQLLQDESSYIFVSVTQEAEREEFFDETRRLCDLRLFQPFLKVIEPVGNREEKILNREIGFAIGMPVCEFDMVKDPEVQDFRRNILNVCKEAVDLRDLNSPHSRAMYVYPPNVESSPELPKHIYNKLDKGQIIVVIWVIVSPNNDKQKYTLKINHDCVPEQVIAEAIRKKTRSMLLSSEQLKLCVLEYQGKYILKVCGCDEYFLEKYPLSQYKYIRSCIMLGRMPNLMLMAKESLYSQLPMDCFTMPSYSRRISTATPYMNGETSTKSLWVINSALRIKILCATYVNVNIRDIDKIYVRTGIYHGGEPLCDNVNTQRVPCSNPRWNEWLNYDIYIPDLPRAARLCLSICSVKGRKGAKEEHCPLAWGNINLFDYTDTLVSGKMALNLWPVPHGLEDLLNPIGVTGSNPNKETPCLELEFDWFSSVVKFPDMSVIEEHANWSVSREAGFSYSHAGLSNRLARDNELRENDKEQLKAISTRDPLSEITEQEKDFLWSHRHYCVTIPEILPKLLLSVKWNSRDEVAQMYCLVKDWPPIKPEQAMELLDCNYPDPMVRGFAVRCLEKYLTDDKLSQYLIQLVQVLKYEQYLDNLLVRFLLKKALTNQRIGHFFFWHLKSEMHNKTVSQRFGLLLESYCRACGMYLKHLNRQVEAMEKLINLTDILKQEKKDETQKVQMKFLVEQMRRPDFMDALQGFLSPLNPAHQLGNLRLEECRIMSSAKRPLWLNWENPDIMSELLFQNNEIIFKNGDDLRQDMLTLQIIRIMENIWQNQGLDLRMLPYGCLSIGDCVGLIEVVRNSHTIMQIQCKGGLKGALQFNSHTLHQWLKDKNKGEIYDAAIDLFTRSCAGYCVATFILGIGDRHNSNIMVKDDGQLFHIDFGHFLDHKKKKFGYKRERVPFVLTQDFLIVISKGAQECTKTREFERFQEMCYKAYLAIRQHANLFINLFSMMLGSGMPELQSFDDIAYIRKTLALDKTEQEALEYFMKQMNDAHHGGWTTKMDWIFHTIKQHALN

Like-named read-outs stand apart in the source and are kept apart here.

As to `C[C@H]1[C@H](c2nccs2)OC(=O)N1c1cc(-c2cnc(N)nc2C(F)(F)F)nc(N2CCOCC2)n1` [Example 1, (4S,5R)-3-(2′-Amino-2-morpholin-4-yl-4′-trifluoromethyl-[4,5′]bipyrimidinyl-6-yl)-4-methyl-5-thiazol-2-yl-oxazolidin-2-one], the IC50 in the test with Detroit562 cells (measurement #1, read-out: anti-proliferative IC50 Detroit562 measurement #1) came out at 0.598 µM; in the test with Detroit562 cells (measurement #2, read-out: anti-proliferative IC50 Detroit562 measurement #2), 0.44 µM; in the test on SCC12B2 cells (measurement #1, read-out: anti-proliferative IC50 SCC12B2 measurement #1) it was 1.29 µM; in the test with SCC12B2 cells (measurement #2, read-out: anti-proliferative IC50 SCC12B2 measurement #2), 0.703 µM.
`Nc1ncc(-c2cc(N3C(=O)O[C@@H](c4ccccc4)[C@@H]3CO)nc(N3CCOCC3)n2)c(C(F)(F)F)n1` [Example 10] came in with a PI3Ka/IC50 at human PI3Kα of 0.009 umol I-1.
